Data published in PMC5466349 (Pharmacotherapy, 2014).

Assay: clinical
Conditions: human, in vivo; for half-life: T ½; for half-life / Tmax: geometric mean (90% CI), post-ginseng

Cl/Fss geometric mean ratio (90% CI), post-ginseng/pre-ginseng | T ½ geometric mean ratio (90% CI), post-ginseng/pre-ginseng | half-life [h] | Tmax [h] | Compound
1.05 (0.94–1.17) | 1.19 (0.92–1.46) | 10 | 2.5 | Cc1cccc(C)c1OCC(=O)N[C@@H](Cc1ccccc1)[C@@H](O)C[C@H](Cc1ccccc1)NC(=O)[C@H](C(C)C)N1CCCNC1=O [Lopinavir, lopinavir]
– | – | 7.71 | 2.7 | CC(C)c1nc(CN(C)C(=O)N[C@H](C(=O)N[C@@H](Cc2ccccc2)C[C@H](O)[C@H](Cc2ccccc2)NC(=O)OCc2cncs2)C(C)C)cs1 [Ritonavir, ritonavir]
